From patent US10940188B2, “Compounds and methods for treatment and prevention of Flavivirus infection” (priority 2016, dated 2021)

What was measured:
[1] = test system: forebrain-specific hNPCs infected by FSS13025; test: Immunostaining of ZIKV-infected forebrain-specific hNPCs (monolayer) for cleaved caspase-3 and ZIKVE; assay type: cell-based, human
Excerpt: FIGS. 1A-1, 1A-2, 1A-3, 1B-1, 1B-2, 1C-1, and 1C-2. Emricasan suppresses cell death of ZIKV-infected human astrocytes and hNPCs in 2D monolayer cultures and 3D brain organoids. Emricasan (FIG. 1A-1) inhibits caspase-3 activity and improves cell viability in human astrocytes infected with three different strains of ZIKV in a concentration dependent manner. Value represent mean±s.d. (n=3). The curves (FIGS. 1A-2 and 1A-3) represent best fit. (FIG. 1B) Sample images of immunostaining (FIG. 1B-1) of forebrain-specific hNPCs for ZIKV envelop protein (ZIKVE; green) and cleaved-caspase 3 (Cas3; red) and DAPI (gray) 72 hours after ZIKV FSS-13025 infection (MOI=0.04-0.08; Scale bar: 20 μm), and quantification (FIG. 1B-2). Values represent mean±s.e.m. (n=3; **P<0.01; Student's t-test). Sample images (FIG. 1C-1) of immunostaining of day 28 human forebrain-specific organoids for ZIKVE (green) and Cas3 (red) and DAPI (gray) 10 days after ZIKV FSS-13025 infection (Scale bar: 100 μm), and quantification (FIG. 1C-2). Values represent mean±s.e.m. (n=6; ***P<0.001; Student's t-test).
Cells were fixed with 4% paraformaldehyde (Sigma) for 15 min at room temperature. Samples were permeabilized and blocked with 0.25% Triton X-100 (Sigma) and 10% donkey or goat serum in PBS for 20 min as previously described (Chiang et al., 2011; [41]; Yoon et al., 2014). […]

[2] = oral, BID, ×4 days, cited from earlier work
[3] = test system: liver injury and fibrosis; settings: murine NASH model; cited from earlier work
activated caspases = settings: in vitro; cited from earlier work
ZIKV in human astrocytes = test: ZIKV infection of human astrocytes (ZIKVE immunostaining, NS1 Western blot/ELISA); assay type: cell-based, Zika virus; settings: PRVABC59
Method: FIGS. 4A-1, 4A-2, 4B-1, 4B-2, 4B-3, 4C-1, 4C-2, 4D-1, and 4D-2. […] Cells were fixed 24 hours post infection and stained for ZIKVE (green) and DAPI (blue). Scale bar: 50 μm. Also shown is the quantification of ZIKV-infected astrocytes with multiple compound concentrations (FIG. 4A-2). Values represent mean±s.d. (n=6; ***P<0.001; One-way ANOVA). Shown in FIG. 4B-3 is virus production from compound-treated iPSC-derived human astrocytes (as in FIG. 2F) (n=3 cultures). Data represent mean±s.d. […] Shown are sample images and quantification (FIGS. 4B-1 and 4B-2). Values represent mean±s.d. (n=2; ***P<0.01; One-way ANOVA). Synergistic effect of Emricasan/PHA-690509 combination on improving cell viability in ZIKV infected astrocytes. Note that Emricasan and PHA-690509 inhibit the increased caspase-3 activity in a concentration-dependent manner in human astrocytes infected with FSS13025-ZIKV or MR766 ZIKV, and improve cell viability as measured by ATP production (FIGS. 4C-1, 4C-2, 4D-1, and 4D-2). Values represent mean±s.d. […]
FIGS. 8A-8E. […] Cell lysates were harvested 24 hours post infection and analyzed for ZIKV-NS1 and GAPDH protein levels by western blot. Shown are representative Western blot images (FIG. 8A) and quantification (FIG. 8B). […] Shown in FIG. 8D are representative images of immunostaining for ZIKVE (green) and DAPI (gray, left; Scale bar: 20 μm) and quantification (FIG. 8E). […]

C[C@H](NC(=O)C(=O)Nc1ccccc1C(C)(C)C)C(=O)N[C@@H](CC(=O)O)C(=O)COc1c(F)c(F)cc(F)c1F [Emricasan]
number of cleaved caspase-3-expressing hNPCs, monolayer ([1]; FSS13025 infection, 72 hours): reduced the number of active (cleaved) caspase-3-expressing forebrain-specific hNPCs
suppression of ZIKV replication (ZIKV antigen in 2D and 3D cultures) ([1]; after Emricasan treatment): does not suppress ZIKV replication
maximum (Cmax) concentration in human blood [2]: 2360 ng/mL
Cmax ([2]; read-out: maximum (Cmax) concentration in human blood, value in brackets): 4.15 µM
liver injury and fibrosis [3]: reduces liver injury and fibrosis
activity against activated caspases (activated caspases): sub- to nano-molar activity

O=C(Nc1ccc([N+](=O)[O-])cc1Cl)c1cc(Cl)ccc1O [Niclosamide]
inhibition of ZIKV infection in astrocytes (ZIKV in human astrocytes): inhibited ZIKV^PR infection

CC(=O)Nc1ccc([C@H](C)C(=O)Nc2ncc(C(C)C)s2)cc1 [PHA-690509]
inhibition of ZIKV infection in astrocytes (ZIKV in human astrocytes): inhibited ZIKV^PR infection
